ChEMBL document CHEMBL3751730, “Synthesis and in vitro antitumor evaluation of dihydroartemisinin-cinnamic acid ester derivatives” (Eur J Med Chem, 2016)
pIC50: −log10 of the molar value. Active and inactive are the calls of the source. The calls are words filed in the database; no cut-off is given here.

Columns and labels:
A549 [1] = experiment: Antiproliferative activity against human A549 cells after 72 hrs by MTT assay; type: functional, cell-based; conditions: A549, 72 h
[2] = Antiproliferative activity against human SGC7901 cells after 72 hrs by MTT assay; type: functional, cell-based; conditions: SGC-7901, 72 h
[3] = Antiproliferative activity against human MDA-MB-435S cells after 72 hrs by MTT assay; type: functional, cell-based
A549 [4] = experiment: Antiproliferative activity against human A549 cells at 0.20 uM after 72 hrs by MTT assay in presence of 0.40 uM 3,4-dimethoxycinnamic acid; type: functional, cell-based
A549 [5] = experiment: Antiproliferative activity against human A549 cells at 0.20 uM after 72 hrs by MTT assay; type: functional, cell-based
[6] = Antiproliferative activity against human PC3 cells after 72 hrs by MTT assay; type: functional, cell-based; conditions: PC-3, 72 h
A549 [7] = experiment: Induction of apoptosis in human A549 cells assessed as early apoptotic cells at 30 uM after 48 hrs by Annexin V/propidium iodide staining based flow cytometric analysis in presence of 3 uM DFO (reference value: 0.63%); type: functional
A549 [8] = experiment: Induction of apoptosis in human A549 cells assessed as cell viability at 3 to 30 uM after 48 hrs by MTT assay in presence of 5 mM NAC; type: functional, cell-based
A549 [9] = experiment: Induction of apoptosis in human A549 cells assessed as cell shrinkage at 10 uM after 48 hrs by Hoechst 33258 staining based fluorescence microscopic analysis; type: functional
A549 [10] = experiment: Induction of apoptosis in human A549 cells assessed as reactive oxygen species formation after 48 hrs by DCFH-DA staining based fluorescence microscopic analysis; type: functional, cell-based
A549 [11] = experiment: Induction of apoptosis in human A549 cells assessed as early apoptotic cells at 30 uM after 48 hrs by Annexin V-FITC/propidium iodide staining based flow cytrometric analysis (reference value: 0.63%); type: functional
A549 [12] = experiment: Induction of apoptosis in human A549 cells assessed as cell shrinkage at 3 uM after 48 hrs by Hoechst 33258 staining based fluorescence microscopic analysis; type: functional
A549 [13] = experiment: Induction of apoptosis in human A549 cells assessed as nuclear rounding at 10 uM after 48 hrs by Hoechst 33258 staining based fluorescence microscopic analysis; type: functional, cell-based
[14] = Cytotoxicity against human L02 cells after 72 hrs by MTT assay; type: cell-based; conditions: L02, 72 h
A549 [15] = experiment: Induction of apoptosis in human A549 cells assessed as reactive oxygen species formation at 30 uM by DCFH-DA staining based FLIPR assay; type: functional, cell-based; conditions: TDE = time-dependent effect
A549 [16] = experiment: Induction of apoptosis in human A549 cells assessed as early apoptotic cells at 30 uM after 48 hrs by Annexin V/propidium iodide staining based flow cytometric analysis in the absence of 3 uM DFO (reference value: 0.63%); type: functional
A549 [17] = experiment: Induction of apoptosis in human A549 cells assessed as early apoptotic cells at 30 uM after 48 hrs by Annexin V/propidium iodide staining based flow cytrometric analysis in presence of 5 mM NAC (reference value: 0.63%); type: functional
A549 [18] = experiment: Induction of apoptosis in human A549 cells assessed as nuclei blebbing at 30 uM after 48 hrs by Hoechst 33258 staining based fluorescence microscopic analysis; type: functional, cell-based
A549 [19] = experiment: Induction of apoptosis in human A549 cells after 48 hrs by Annexin V-FITC/propidium iodide staining based flow cytometric analysis; type: functional, cell-based
A549 [20] = experiment: Induction of apoptosis in human A549 cells assessed as nuclei blebbing at 10 uM after 48 hrs by Hoechst 33258 staining based fluorescence microscopic analysis; type: functional, cell-based
A549 [21] = experiment: Induction of reactive oxygen species generation in human A549 cells at 30 uM measured for 20 hrs by DCFH-DA staining based fluorescence assay in presence of 3 uM DFO; type: functional, cell-based
[22] = Induction of apoptosis in human L02 cells assessed as reactive oxygen species formation at 10 uM after 48 hrs by DCFH-DA staining based fluorescence microscopic analysis; type: cell-based; conditions: l02, 48 h
A549 [23] = experiment: Induction of apoptosis in human A549 cells assessed as early apoptotic cells at 3 uM after 48 hrs by Annexin V-FITC/propidium iodide staining based flow cytrometric analysis (reference value: 0.63%); type: functional
A549 [24] = experiment: Induction of apoptosis in human A549 cells assessed as nuclear rounding at 3 uM after 48 hrs by Hoechst 33258 staining based fluorescence microscopic analysis; type: functional, cell-based
A549 [25] = experiment: Induction of apoptosis in human A549 cells assessed as nuclei blebbing at 3 uM after 48 hrs by Hoechst 33258 staining based fluorescence microscopic analysis; type: functional, cell-based
A549 [26] = experiment: Induction of apoptosis in human A549 cells assessed as nuclear rounding at 30 uM after 48 hrs by Hoechst 33258 staining based fluorescence microscopic analysis; type: functional, cell-based
[27] = Induction of apoptosis in human L02 cells assessed as reactive oxygen species formation at 30 uM after 48 hrs by DCFH-DA staining based fluorescence microscopic analysis; type: cell-based; conditions: l02, 48 h
[28] = Induction of apoptosis in human L02 cells assessed as reactive oxygen species formation at 30 uM measured for 20 hrs by DCFH-DA staining based FLIPR assay; type: cell-based; conditions: l02, 20 h
A549 [29] = experiment: Induction of apoptosis in human A549 cells assessed as cell shrinkage at 30 uM after 48 hrs by Hoechst 33258 staining based fluorescence microscopic analysis; type: functional
A549 [30] = experiment: Induction of apoptosis in human A549 cells assessed as early apoptotic cells at 30 uM after 48 hrs by Annexin V/propidium iodide staining based flow cytrometric analysis in absence of 5 mM NAC (reference value: 0.63%); type: functional
A549 [31] = experiment: Cytotoxicity against human A549 cells assessed as cell viability at 3 to 30 uM after 48 hrs by MTT assay in presence of 3 uM DFO; type: functional, cell-based
[32] = Selectivity index, ratio of IC50 for human L02 cells to IC50 for human A549 cells; type: functional
A549 [33] = experiment: Induction of apoptosis in human A549 cells assessed as early apoptotic cells at 10 uM after 48 hrs by Annexin V-FITC/propidium iodide staining based flow cytrometric analysis (reference value: 0.63%); type: functional
[34] = Chemical stability of the compound at 2 to 4 mg at 25 to 300 degC by differential scanning […] analysis in the presence of nitrogen gas; type: physicochemical
[35] = Drug degradation at 2 to 4 mg at 210 to 220 degC by thermogravimetric analysis in the presence of nitrogen gas; type: physicochemical; conditions: in vivo; read-out: Drug degradation
A549 [36] = experiment: Antiproliferative activity against human A549 cells at 0.40 uM after 72 hrs by MTT assay; type: functional, cell-based
A549 [37] = experiment: Antiproliferative activity against human A549 cells at 0.40 uM after 72 hrs by MTT assay in presence of 0.20 uM 9alpha-DHA; type: functional, cell-based

In the case of `C[C@@H]1[C@H](O)C[C@H]2[C@@H](C)[C@@H](O)O[C@@H]3O[C@@]4(C)CC[C@@H]1[C@]32OO4`, the pIC50 (A549 [1]) was < 4.00, the pIC50 [2] was < 4.00 and the pIC50 [3] was 4.24. For the same compound, the Activity (A549 [4]) was “inactive”, the Activity (A549 [5]) was “inactive” and the pIC50 [6] was < 4.00.
In the case of `COc1ccc(/C=C/C(=O)O[C@@H]2O[C@@H]3O[C@@]4(C)CC[C@H]5[C@H](C)[C@H](OC(=O)/C=C/c6ccc(OC)c(OC)c6)C[C@@H]([C@H]2C)[C@@]35OO4)cc1OC`, the Activity (A549 [7]) was 2.17%, the Activity (A549 [8]) was “inactive” and the pIC50 (A549 [1]) was 6.70. The Activity (A549 [9]) was “Active”, the Activity (A549 [10]) was “Dose-dependent effect” and the Activity (A549 [11]) was 16.88%. For the same compound, the Activity (A549 [12]) was “Active”, the pIC50 [2] was 5.31 and the Activity (A549 [13]) was “Active”. The pIC50 [14] was 4.10, the Activity (A549 [15]) was “tde” and the Activity (A549 [16]) was 16.88%. For the same compound, the Activity (A549 [17]) was 4.71%, the Activity (A549 [18]) was “Active” and the Activity (A549 [19]) was “Dose-dependent effect”. For the same compound, the pIC50 [3] was 5.21, the Activity (A549 [20]) was “Active” and the Activity (A549 [5]) was “Active”. The Activity (A549 [21]) was “inactive”, the Activity [22] was “Non-toxic” and the Activity (A549 [23]) was 4.33%. The Activity (A549 [24]) was “Active”, the Activity (A549 [25]) was “Active” and the Activity (A549 [26]) was “Active”. The Activity [27] was “Non-toxic”, the Activity [28] was “Non-toxic” and the Activity (A549 [29]) was “Active”. The Activity (A549 [30]) was 16.88%, the Activity (A549 [31]) was “inactive” and the “Ratio IC50” value [32] was 401.25. For the same compound, the Activity (A549 [33]) was 14.01% and the pIC50 [6] was 4.64.
In the case of `COc1cc(/C=C/C(=O)O[C@@H]2O[C@@H]3O[C@@]4(C)CC[C@H]5[C@H](C)[C@H](OC(=O)/C=C/c6cc(OC)c(OC)c(OC)c6)C[C@@H]([C@H]2C)[C@@]35OO4)cc(OC)c1OC`, the pIC50 (A549 [1]) was 6.30, the pIC50 [2] was 4.93 and the pIC50 [14] was 4.23. The pIC50 [3] was 5.27, the Stability [34] was “Stable” and the degraded [35] was 1%. The “Ratio IC50” value [32] was 117.3 and the pIC50 [6] was 4.76.
With `COc1ccc(/C=C/C(=O)O)cc1OC` the Activity (A549 [36]) was “inactive” and the Activity (A549 [37]) was “inactive”.
